Legend:
Acetylcholinesterase = Acetylcholinesterase (Homo sapiens, UniProt P22303)
Description: Inhibition of AChE (unknown origin) preincubated for 30 mins followed by substrate addition acetylthiocholineiodide measured after 40 mins by Ellman's method

Cholinesterase = Cholinesterase (Homo sapiens, UniProt P06276)
Description: Inhibition of BuChE (unknown origin) preincubated for 30 mins followed by substrate addition acetylthiocholineiodide measured after 40 mins by Ellman's method

N2a = test: Cytotoxicity against mouse N2a cells incubated for 48 hrs by MTT assay; type: cell-based
[1] = Cytotoxicity against porcine fetal kidney cells incubated for 48 hrs by MTT assay; type: cell-based; conditions: Sus scrofa, Fetal kidney cell
[2] = Cytotoxicity against goat fetal fibroblast cells incubated for 48 hrs by MTT assay; type: cell-based, Fetal fibroblast cell; conditions: Capra hircus

Acetylcholinesterase, sequence (P22303 whole entry): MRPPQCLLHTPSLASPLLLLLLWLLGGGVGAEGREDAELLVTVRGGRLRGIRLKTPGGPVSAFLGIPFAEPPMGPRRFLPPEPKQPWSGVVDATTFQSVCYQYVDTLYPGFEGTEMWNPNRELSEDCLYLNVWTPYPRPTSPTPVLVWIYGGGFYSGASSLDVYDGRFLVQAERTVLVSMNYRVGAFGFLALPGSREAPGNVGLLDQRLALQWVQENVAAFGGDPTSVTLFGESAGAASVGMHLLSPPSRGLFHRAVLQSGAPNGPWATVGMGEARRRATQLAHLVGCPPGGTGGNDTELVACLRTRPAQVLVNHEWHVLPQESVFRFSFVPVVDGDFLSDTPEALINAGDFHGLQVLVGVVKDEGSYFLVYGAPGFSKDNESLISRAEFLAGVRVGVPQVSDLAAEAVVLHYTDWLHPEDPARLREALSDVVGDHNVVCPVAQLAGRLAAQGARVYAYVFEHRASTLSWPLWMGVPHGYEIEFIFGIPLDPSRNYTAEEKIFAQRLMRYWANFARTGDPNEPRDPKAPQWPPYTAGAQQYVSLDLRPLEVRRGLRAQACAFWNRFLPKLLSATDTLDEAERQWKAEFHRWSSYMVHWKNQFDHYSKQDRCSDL
Cholinesterase, sequence (P06276 whole entry): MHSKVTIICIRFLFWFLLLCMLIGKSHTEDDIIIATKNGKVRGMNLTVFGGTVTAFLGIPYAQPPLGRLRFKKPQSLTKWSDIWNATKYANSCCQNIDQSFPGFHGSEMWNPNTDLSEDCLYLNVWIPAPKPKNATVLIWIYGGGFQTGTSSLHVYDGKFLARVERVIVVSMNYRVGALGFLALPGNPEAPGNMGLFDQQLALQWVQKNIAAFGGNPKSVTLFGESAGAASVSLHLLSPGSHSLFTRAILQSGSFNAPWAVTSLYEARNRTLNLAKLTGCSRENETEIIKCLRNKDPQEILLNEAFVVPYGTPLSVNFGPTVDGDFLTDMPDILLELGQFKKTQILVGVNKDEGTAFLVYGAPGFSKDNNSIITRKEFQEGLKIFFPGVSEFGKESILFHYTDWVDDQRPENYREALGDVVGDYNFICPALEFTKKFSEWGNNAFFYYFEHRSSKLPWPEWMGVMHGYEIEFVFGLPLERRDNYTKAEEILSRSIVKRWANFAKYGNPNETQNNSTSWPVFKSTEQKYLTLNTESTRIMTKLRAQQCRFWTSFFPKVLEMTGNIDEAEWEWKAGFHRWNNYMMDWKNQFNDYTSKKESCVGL

Structure (SMILES)	IC50 (Acetylcholinesterase)	IC50 (Cholinesterase)	IC50 (N2a)	IC50 [1]	IC50 [2]
COc1cccc2c1C=[N+](c1ccccc1Br)CC2	1.5 µM	27.2 µM	–	–	–
COc1cccc2c1C=[N+](c1ccccc1C#N)CC2	> 10 µM	–	–	–	–
COc1cccc2c1C=[N+](c1ccc(F)cc1)CC2	1.99 µM	113 µM	–	–	–
COc1cccc2c1C=[N+](c1cccc(F)c1)CC2	> 10 µM	–	–	–	–
COc1cccc2c1C=[N+](c1cccc(I)c1)CC2	> 10 µM	–	–	–	–
COc1cccc2c1C=[N+](c1ccccc1C)CC2	3.07 µM	133 µM	–	–	–
COc1cccc2c1C=[N+](c1cccc(Cl)c1)CC2	> 10 µM	–	–	–	–
COc1cccc2c1C=[N+](c1ccc(I)cc1F)CC2	1.06 µM	128 µM	–	–	–
COc1cccc2c1C=[N+](c1ccc(C#N)cc1)CC2	> 10 µM	–	–	–	–
COc1cccc([N+]2=Cc3c(cccc3OC)CC2)c1	5.23 µM	77.3 µM	–	–	–
COc1cccc2c1C=[N+](c1ccccc1C(F)(F)F)CC2	> 10 µM	–	–	–	–
COc1cccc2c1C=[N+](c1ccc(Cl)cc1)CC2	0.32 µM	62.1 µM	–	–	–
COc1cccc2c1C=[N+](c1ccc(C(F)(F)F)cc1)CC2	1.94 µM	221 µM	–	–	–
COc1cccc2c1C=[N+](c1cccc(Br)c1)CC2	> 10 µM	–	–	–	–
COc1cccc2c1C=[N+](c1cccc(C#N)c1)CC2	5.13 µM	110 µM	–	–	–
COc1cccc2c1C=[N+](c1ccc(Cl)cc1Cl)CC2	1.04 µM	90.5 µM	–	–	–
COc1ccc([N+]2=Cc3c(cccc3OC)CC2)cc1	1.04 µM	113 µM	26.6 µM	23.8 µM	27.3 µM
COc1cccc2c1C=[N+](c1ccccc1I)CC2	1.79 µM	28.9 µM	–	–	–
COc1cccc2c1C=[N+](c1ccc(I)cc1)CC2	1.01 µM	58.1 µM	–	–	–
COc1cccc2c1C=[N+](c1ccccc1F)CC2	2.94 µM	75 µM	–	–	–
COc1cccc2c1C=[N+](c1cccc(C(F)(F)F)c1)CC2	> 10 µM	–	–	–	–
COc1cccc2c1C=[N+](c1cc(Cl)cc(Cl)c1)CC2	> 10 µM	–	–	–	–

Structure (SMILES)	IC50 (Acetylcholinesterase)	IC50 (Cholinesterase)	IC50 (N2a)	IC50 [1]	IC50 [2]
COc1cccc2c1C=[N+](c1ccc(C)cc1)CC2	0.53 µM	47.1 µM	–	–	–
COc1cccc2c1C=[N+](c1ccccc1)CC2	1.62 µM	35.4 µM	–	–	–
COc1cccc2c1C=[N+](c1ccccc1Cl)CC2	> 10 µM	190 µM	–	–	–
COc1cccc2c1C=[N+](c1cccc(C)c1)CC2	2.89 µM	35.9 µM	–	–	–
COc1cccc2c1C=[N+](c1ccc(Br)cc1F)CC2	1.29 µM	69.3 µM	–	–	–
COc1cccc2c1C=[N+](c1c(F)cccc1F)CC2	1.29 µM	105 µM	–	–	–
COc1cccc2c1C=[N+](c1ccc(Br)cc1Br)CC2	3.72 µM	116 µM	4.26 µM	6.03 µM	6.13 µM
COc1cccc2c1C=[N+](c1ccc(Br)cc1)CC2	0.28 µM	20.7 µM	20.3 µM	19.2 µM	20.6 µM
COc1ccccc1[N+]1=Cc2c(cccc2OC)CC1	> 10 µM	–	–	–	–
C[n+]1cc2c3c(ccc2c2ccc4cc5c(cc4c21)OCO5)OCO3	1.22 µM	7.08 µM	–	–	–
COc1cccc2cc[n+](-c3ccccc3F)cc12	2.55 µM	80.9 µM	–	–	–
COc1cccc2cc[n+](-c3ccc(Br)cc3F)cc12	0.9 µM	196 µM	–	–	–
COc1cccc2cc[n+](-c3ccccc3I)cc12	2.06 µM	36.9 µM	–	–	–
Brc1ccc([N+]2=Cc3ccccc3CC2)cc1	10.5 µM	63.7 µM	–	–	–
COc1cccc2cc[n+](-c3ccc(Cl)cc3)cc12	0.17 µM	104 µM	–	–	–
COc1cccc2cc[n+](-c3ccccc3C(F)(F)F)cc12	> 10 µM	–	–	–	–
COc1cccc2cc[n+](-c3cccc(I)c3)cc12	> 10 µM	–	–	–	–
COc1cccc2cc[n+](-c3cccc(C)c3)cc12	2.21 µM	30.6 µM	–	–	–
COc1cccc(-[n+]2ccc3cccc(OC)c3c2)c1	6.9 µM	98.3 µM	–	–	–
COc1cccc2cc[n+](-c3cccc(C#N)c3)cc12	3.41 µM	> 250 µM	–	–	–
COc1ccccc1-[n+]1ccc2cccc(OC)c2c1	> 10 µM	–	–	–	–
COc1cccc2cc[n+](-c3ccccc3C#N)cc12	1.75 µM	59.4 µM	–	–	–

Structure (SMILES)	IC50 (Acetylcholinesterase)	IC50 (Cholinesterase)	IC50 (N2a)	IC50 [1]	IC50 [2]
COc1cccc2cc[n+](-c3ccc(Cl)cc3Cl)cc12	3.42 µM	232 µM	–	–	–
COc1cccc2cc[n+](-c3ccccc3Cl)cc12	5.33 µM	67.2 µM	–	–	–
COc1cccc2cc[n+](-c3c(F)cccc3F)cc12	2.7 µM	48.4 µM	–	–	–
COc1cccc2cc[n+](-c3cccc(Cl)c3)cc12	9.45 µM	36.4 µM	–	–	–
COc1cccc2cc[n+](-c3ccc(Br)cc3)cc12	0.19 µM	21.6 µM	20.8 µM	19.8 µM	> 50 µM
COc1cccc2cc[n+](-c3ccccc3)cc12	1.42 µM	80.3 µM	–	–	–
COc1cccc2cc[n+](-c3ccc(Br)cc3Br)cc12	0.57 µM	131 µM	> 50 µM	> 50 µM	> 50 µM
COc1cccc2cc[n+](-c3ccc(I)cc3F)cc12	1.23 µM	89.8 µM	–	–	–
COc1cccc2cc[n+](-c3cccc(Br)c3)cc12	> 10 µM	–	–	–	–
COc1cccc2cc[n+](-c3ccc(I)cc3)cc12	0.72 µM	36.1 µM	–	–	–
COc1cccc2cc[n+](-c3cccc(F)c3)cc12	9.13 µM	> 250 µM	–	–	–
COc1cccc2cc[n+](-c3ccc(C#N)cc3)cc12	> 10 µM	–	–	–	–
COc1cccc2cc[n+](-c3ccccc3Br)cc12	5.23 µM	89.5 µM	–	–	–
Brc1ccc(-[n+]2ccc3ccccc3c2)cc1	2.39 µM	130 µM	–	–	–
COc1cccc2cc[n+](-c3ccc(F)cc3)cc12	0.67 µM	143 µM	–	–	–
COc1cccc2cc[n+](-c3cccc(C(F)(F)F)c3)cc12	> 10 µM	–	–	–	–
COc1ccc(-[n+]2ccc3cccc(OC)c3c2)cc1	0.14 µM	3.84 µM	> 50 µM	> 50 µM	> 50 µM
COc1cccc2cc[n+](-c3cc(Cl)cc(Cl)c3)cc12	> 10 µM	–	–	–	–
COc1cccc2cc[n+](-c3ccccc3C)cc12	2.89 µM	243 µM	–	–	–
COc1cccc2cc[n+](-c3ccc(C(F)(F)F)cc3)cc12	0.69 µM	33.5 µM	–	–	–
COc1cccc2cc[n+](-c3ccc(C)cc3)cc12	1.08 µM	> 250 µM	–	–	–
COc1ccc2c(c[n+](C)c3c4cc5c(cc4ccc23)OCO5)c1OC [CHELERYTHRINE]	1.45 µM	8.58 µM	–	–	–
